The assay relates to HBV rcDNA. The experiment in a line: HepDE19 assay with bDNA quantitation of HBV rcDNA. It counts as cell-based, hepatitis B virus. Particulars: HepDE19 cells, Tet-free medium, 7 day-incubation, rcDNA measured by Quantigene 2.0 bDNA assay, top concentration 25 μM, read-out: DE-19 bDNA EC50. In outline:
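Cytotoxicity (CC50) measured by CellTiter-Glo ATP content in parallel plates, 5,000 cells/well, 4 days. Antiviral EC50 and EC90 derived from HBV rcDNA bDNA levels after 7-day compound exposure (top 25 μM, ½-log 8-point, 0.5% DMSO) of Tet-withdrawn HepDE19 cells at 50,000/well, as % inhibition versus untreated.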

Setting [1] is: Hepatitis B virus, HepDE19, 168 h.

Where two headings read alike, the source gives them in different places.

Consider `Cn1c(C(=O)Nc2ccc(F)c(Cl)c2)c2c(c1C1CC1)C(NC(=O)OCc1nc[nH]n1)CC2` (stereo not shown) [Compound 95, (1H-1,2,4-triazol-3-yl)methyl (1-((3-chloro-4-fluorophenyl)carbamoy1)-3-cyclopropy1-2-methyl-2,4,5,6-tetrahydrocyclopenta[c]pyrrol-4-yl)carbamate], for which the concentration for a half-maximal effect (EC50) under setting [1] amounted to 15 µM.
Same read-out and setting: next, `Cn1cc2c(c1C(=O)Nc1ccc(F)c(Cl)c1)CCC2N` (stereo not shown) [Compound 100, 4-Amino-N-(3-chloro-4-fluorophenyl)-2-methyl-2,4,5,6-tetrahydrocyclopenta[c]pyrrole-1-carboxamide]: 3.8 µM; `Cn1c(Cl)c2c(c1C(=O)Nc1ccc(F)c(Cl)c1)CCC2NC(=O)OCc1nc[nH]n1` (stereo not shown) [Compound 103, (1H-1,2,4-Triazol-3-yl)methyl (3-chloro-1-((3-chloro-4-fluorophenyl)carbamoyl)-2-methyl-2,4,5,6-tetrahydrocyclopenta[c]pyrrol-4-yl)carbamate]: 0.02 µM.
Regarding `Cn1cnc(COC(=O)NC2CCc3c2c(C(F)(F)F)n(C)c3C(=O)Nc2ccc(F)c(Cl)c2)n1` (stereo not shown) [Compound 122], the concentration for a half-maximal effect (EC50) turned out to be 0.45 µM.
On the same count and under the same terms, in the case of `Cn1cnc(COC(=O)NC2CCc3c2c(C(F)(F)F)n(C)c3C(=O)Nc2ccc(F)c(Cl)c2)n1` (stereo not shown) [Compound 123] it was 8 µM; in that of `Cn1nnc(COC(=O)NC2CCc3c2cn(C)c3C(=O)Nc2ccc(F)c(Cl)c2)n1` (stereo not shown) [Compound 142, (2-Methyl-1H-tetrazol-5-yl)methyl (1-((3-chloro-4-fluorophenyl)carbamoyl)-2-methyl-2,4,5,6-tetrahydrocyclopenta[c]pyrrol-4-yl)carbamate], 3.2 µM; in that of `Cn1nnc(COC(=O)NC2CCc3c2cn(C)c3C(=O)Nc2ccc(F)c(Cl)c2)n1` (stereo not shown) [Compound 143, (2-Methyl-1H-tetrazol-5-yl)methyl(1-((3-chloro-4-fluorophenyl)carbamoyl)-2-methyl-2,4,5,6-tetrahydrocyclopenta[c]pyrrol-4-yl)carbamate], 0.07 µM.
